Source: patent US20140135359A1, “METHODS OF DESIGNING, PREPARING, AND USING NOVEL PROTONOPHORES” (priority 2012, published 2014)

Legend:
[1] = tested on: isolated rat liver mitochondria; test: Residual functional capacity / inhibitory effect on ADP-stimulated (state 3) oxygen consumption; type: biochemical; conditions: for Residual capacity (%): functional capacity (state 3 minus state 4 rate) as % of vehicle-treated mitochondria
[2] = tested on: differentiated C2C12 skeletal muscle cells; test: 3H-deoxyglucose uptake in C2C12 myotubes; type: cell-based, murine; conditions: 18 h
Protocol: 2.3 ^3H-deoxyglucose uptake in C2C12 myotubes: Cell culture and the ^3H-deoxyglucose uptake assay were performed as previously described [34B, 35B, 37B]. Briefly, C2C12 murine skeletal myoblasts (American Type Culture Collection; Manassas, Va.) were cultured under standard conditions in 12-well plates. Cells were proliferated to 80% confluence in high-glucose Dulbecco's modified Eagle's medium (DMEM; Wisent; St-Bruno, QC) supplemented with 10% fetal bovine serum (FBS; Wisent), 10% horse serum (HS), and antibiotics. Differentiation into multinucleated myotubes was then promoted with DMEM supplemented with 2% HS and antibiotics. All uptake assays were performed on 7-day differentiated cells, and treatments were timed accordingly. […] DMSO concentration was fixed at 0.1% for all conditions. Cells were routinely inspected for abnormal morphology by phase-contrast microscopy at the conclusion of the treatment period. […] Cells were then washed twice in glucose-free KPB at 37° C. before incubation for exactly 10 min at 37° C. in glucose-free KPB containing 0.5 μCi/ml 2-deoxy-D-[1-^3H]glucose (Amersham Biosciences; Buckinghamshire, UK). Cells were then placed on ice and immediately washed three times with ice-cold KPB. Cells were inspected for monolayer detachment and lysed in 0.1 N NaOH with scraping. […] Three independent experiments of 18 h treatment duration were performed for each of the selected test compounds, with three replicates per condition per experiment. Vehicle-control and 50 μM 2,4-dinitrophenol conditions were included on every plate. Some compounds were also tested at 50 μM under the following conditions: a 15 h treatment with vehicle only followed by a 3 h treatment with the test compound; a 15 h treatment with the test compound followed by a 3 h repeat treatment.
Protocol for ^3H-deoxyglucose uptake assay in C2C12 or other skeletal muscle cells; C2C12 murine skeletal myoblasts (American Type Culture Collection; Manassas, Va.) may be cultured under standard conditions in 12-well plates. Cells may be proliferated to 80% confluence in high-glucose Dulbecco's modified Eagle's medium (DMEM) supplemented with 10% fetal bovine serum (FBS), 10% horse serum (HS), and antibiotics. Differentiation into multinucleated myotubes may be then promoted with DMEM supplemented with 2% HS and antibiotics. All uptake assays may be performed on 7-day differentiated cells, and treatment onset may be timed accordingly. Cells may be treated with reference substances (such as metformin (100 or 400 μM), phenformin (100 μM), or 2,4-dinitrophenol 10-100 μM), compounds described herein, or vehicle (DMSO) in complete differentiation medium. DMSO concentration may be fixed at 0.1% for all conditions. Cells may be routinely inspected for abnormal morphology by phase-contrast microscopy at the conclusion of the treatment period. […] Cells may be then washed twice in glucose-free KPB at 37° C. before incubation for exactly 10 min at 37° C. in glucose-free KPB containing 0.5 μCi/ml 2-deoxy-D-[1-3H]glucose (Amersham Biosciences; Buckinghamshire, UK). Cells may be then placed on ice and immediately washed three times with ice-cold KPB. Cells may be inspected for monolayer detachment and lysed in 0.1 N NaOH with scraping. […] Three or more independent experiments of 18 hours treatment duration may be performed for each test compound, with three or more replicates per condition per experiment. Vehicle-control and 2,4-dinitrophenol conditions may be included on every plate for the purpose of standardizing.

O=[N+]([O-])c1ccc(O)c([N+](=O)[O-])c1 [2,4-dinitrophenol]
Inhibitory effect (%) ([1]; test conc. 25 μM): 0% | Residual capacity (%) ([1]; test conc. 25 μM): 14 ± 6% | Inhibitory effect (%) ([1]; test conc. 100 μM): 0% | Residual capacity (%) ([1]; test conc. 100 μM): 0 ± 0% | increase in basal glucose uptake ([2]; 25 μM): 66% | increase in basal glucose uptake ([2]; 50 μM): 119% | increase in basal glucose uptake ([2]; 100 μM): 169%
